Test results: patent US20240245694A1, “Tricyclic Compounds and their Uses” (Novartis AG, priority 2022, published 2024)

Experiments:
SW48 cells = assay: Proliferation assay SW48 (CellTiterGlo, 96 hours); assay type: cell-based; conditions: Homo sapiens
From the text: (§1) The colon carcinoma cell lines SW48 (RRID: CVCL_1724), HCT 116 (RRID: CVCL_0291) and SNU-407 (RRID: CVCL_5058) were obtained from ATCC. The WRN-knockdown insensitive colon carcinoma cell line DLD-1 (RRID: CVCL_0248) was obtained from the Korean Cell Line Bank (KCLB), and used to generate a derivative in which the endogenous WRN gene copies were knocked out by CRISPR-mediated editing using standard CRISPR methods. The resulting cell line, DLD1-WRN-KO, was used to assess potential off-target compound effects.
(§2) SW48, SNU-407 and DLD1-WRN-KO cells were cultured in growth medium composed of RPMI-1640 (Amimed Cat #1-41F22-1), 2 mM L-Glutamine (Amimed Cat #5-10K50), 10 mM HEPES (Gibco Cat #15630-056), 1 mM sodium pyruvate (Amimed Cat #5-60F00-H), 1× Penicillin-Streptomycin (Amimed Cat #4-01F00-H) and 10% fetal calf serum (Amimed Cat #2-01F30-G, Lot #LB11566P). HCT 116 cells were cultured in growth medium composed of McCoys 5A (Amimed catalog #1-18F01-1), 2 mM L-Glutamine (Amimed Cat #5-10K50), 1× Penicillin-Streptomycin (Amimed Cat #4-01F00-H) and 10% fetal calf serum (Amimed Cat #2-01F30-G, Lot #LB11566P). All cells were maintained at 37° C. in a humidified 5% CO2 incubator.
(§3) Following filtration through a Steriflip-NY 20 μm filter (Millipore Cat #SCNY00020), trypsinized cells were seeded in 100 microliters growth medium at 2′000 (SW48) or 1′500 (SNU-407, DLD1-WRN-KO, HCT 116) cells/well into white, clear-bottom 96-well plates (Costar Cat #3903). Three replicate plates were prepared for each compound treatment condition. In addition, one plate (termed “day 0”) was prepared to quantify the number of viable cells at the time of compound addition. Following overnight incubation at 37° C. in a humidified 5% CO2 atmosphere, eight 3-fold serial dilutions of a given compound stock (obtained at a concentration of 10 mM in DMSO and stored at 4° C.) were dispensed directly into each of the triplicate assay plates using a HP 300D non-contact Digital Dispenser (TECAN). The final concentration of DMSO was normalized to 0.1% in all wells. 96 hours after compound addition, cellular ATP levels as a surrogate for cell viability was assessed following addition of 50 microliters CellTiterGlo (Promega Cat #G7573) reagent and luminescence quantification on a MPLEX multi-mode plate-reader (TECAN) following a 10 minute incubation at room temperature. The number of viable cells in the “day 0” plate were quantified identically on the day of compound addition.
(§4) For data analysis, the assay background signal that was determined in wells containing medium, but no cells, was subtracted from all other data points prior to further calculations. The extent of growth inhibition and potential cell kill was assessed by comparing the ATP levels (measured using CellTiterGlo, Promega) in compound-treated cells with those present at the time of compound addition. To this end, the following conditional concept was programmatically applied in HELIOS, an in-house software applying a multi-step decision tree to arrive at optimal concentration response curve fits (Gubler et al, SLAS DOI: 10.1177/2472555217752140) to calculate % growth (% G) for each compound-treated well: % G=(T−V0)/V0))*100 when T<V0, and % G=(T−V0)/(V−V0)))*100 when T>V0, where V0 is the viability level at time of compound addition, while V and T represent vehicle-control and compound-treated viability levels, respectively, at the end of the compound incubation. 100%, 0% and −100% signify absence of growth inhibition, growth stasis, and complete cell kill, respectively. Compound concentrations leading to half-maximal growth inhibition (G150) and residual cell viability at the highest tested compound concentration (Data (cmax), expressed in percent) were routinely calculated. Data analysis can also be carried out using commercially available software designed to derive IC50 values using 4-parameter fits (e.g. GraphPad Prism, XL fit). […]

DLD1-WRN-KO cells = assay: Proliferation assay DLD1-WRN-KO (CellTiterGlo, 96 hours), off-target effects; assay type: cell-based; conditions: Homo sapiens
From the text: as §1, §2, §3, §4

[1] = target: WRN helicase (core helicase motif aa N517-P1238) (Homo sapiens (Human), UniProt Q14191); assay: WRN ATPase assay (ADP-Glo), DNA dependent ATP hydrolysis; assay type: biochemical; conditions: 3 hours pre-incubation, 300 micromolar ATP, FLAP26 ssDNA; geometric means of at least 2 determinations
From the text: An ATPase assay was set up to measure the DNA dependent ATP hydrolysis activity of WRN helicase. This assay was used also to assess the inhibition properties of compounds of the invention on DNA dependent WRN ATPase activity.
The core helicase motif of the WRN protein (aa N517-P1238) was produced for this assay (protein production as described above). A 45 oligonucleotide sequence called “FLAP26” as described by Brosh et al., 2009, DOI: 10.1074/jbc.M111446200 ([…]; SEQ ID NO: 2) was purchased from IDT (Integrated DNA Technologies, Leuven, Belgium) and used as single strand DNA substrate. The ADP-Glo assay kit (Promega, Madison, WI) allowing the quantification of ADP produced in ATP hydrolysis reactions was used for setting up this assay. Time course experiments were first performed in order to determine the best enzymatic assay conditions (including buffer conditions, reaction time and concentrations of protein, ATP and DNA substrates). A typical reaction consists of 10 nM WRN protein, 0.2 nM FLAP26, and 300 micromolar ATP in the following assay buffer: 30 mM Tris pH7.5, 2 mM MgCl2, 0.02% BSA, 50 mM NaCl, 0.1% pluronic F127 prepared in DNAse free water.
To evaluate the inhibition properties of compounds of the invention, serial dilutions were prepared in DMSO (10 half log dilutions from a 10 mM DMSO solution). 50 nanoliters of each concentration was pre-incubated for 3 hours in a 384 small volume assay plate (Greiner #784075) with 2.5 microliters of a 20 nM WRN helicase protein in assay buffer with 600 micromolar ATP. Control wells were included with a “high control” (no inhibition), containing DMSO with no test compound, and “low controls” (maximal inhibition), containing buffer without protein. The reaction was started by addition of 2.5 microliters of FLAP26 at 0.4 nM and incubated for 30 minutes at room temperature. The reaction was stopped with the addition of 5 microliters of the first ADP-Glo reagent and incubated for one hour to remove the excess amount of ATP. Afterwards, 10 microliters of ATP detection reagent was added and incubated for an additional hour before reading. Luminescence output was recorded using Tecan 1000 reader, with 5 minutes delay before reading. Each concentration of compound was tested in duplicates in the assay plate.
Data analysis was carried out using an in-house developed software (Novartis Helios software application, Novartis Institutes for BioMedical Research, unpublished) using the methods described by Formenko et al., 2006, DOI: 10.1016/j.cmpb.2006.01.008. Following normalization of activity values for the wells to % inhibition (% inhibition=[(high control-sample)/(high control-low control)]×100), IC50 fitting was carried out from the duplicate determinations present on each plate according to [4]. Data analysis can also be carried out using commercially available software designed to derive IC50 values using 4-parameter fits (e.g. GraphPad Prism, XL fit). The reported IC50 values are the geometrical means of at least 2 independent replicates.

Sequence of WRN helicase (core helicase motif aa N517-P1238) (Q14191 517-1238): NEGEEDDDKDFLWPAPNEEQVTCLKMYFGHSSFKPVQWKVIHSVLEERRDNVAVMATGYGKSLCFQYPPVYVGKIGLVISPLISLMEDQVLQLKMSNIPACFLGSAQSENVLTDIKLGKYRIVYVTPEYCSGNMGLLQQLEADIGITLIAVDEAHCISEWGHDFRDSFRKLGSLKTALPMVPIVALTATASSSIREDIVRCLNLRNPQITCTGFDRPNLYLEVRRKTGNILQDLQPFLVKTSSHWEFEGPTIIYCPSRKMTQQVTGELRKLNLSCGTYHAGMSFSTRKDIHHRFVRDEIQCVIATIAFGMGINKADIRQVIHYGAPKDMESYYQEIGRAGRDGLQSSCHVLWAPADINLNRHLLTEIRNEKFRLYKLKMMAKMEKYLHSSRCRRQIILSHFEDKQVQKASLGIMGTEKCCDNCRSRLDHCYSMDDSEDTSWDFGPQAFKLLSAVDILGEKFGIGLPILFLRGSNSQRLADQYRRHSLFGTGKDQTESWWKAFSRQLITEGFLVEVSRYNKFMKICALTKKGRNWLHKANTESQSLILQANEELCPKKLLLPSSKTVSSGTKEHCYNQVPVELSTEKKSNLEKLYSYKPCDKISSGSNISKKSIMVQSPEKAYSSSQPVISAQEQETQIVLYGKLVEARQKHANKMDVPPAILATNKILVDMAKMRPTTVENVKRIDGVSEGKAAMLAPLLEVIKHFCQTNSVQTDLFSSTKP

SMILES	GI50 (SW48 cells) [nM]	GI50 (DLD1-WRN-KO cells) [nM]	IC50 [1] [nM]
Cc1cc(C(F)(F)F)ccc1NC(=O)[C@H]1C[C@H](C)c2c(N3CCN(C(=O)c4ncccc4O)CC3)c(=O)n3nc(C4=CCOCC4)nc3n21 [Example 15C, (7S,9R)-2-(3,6-dihydro-2H-pyran-4-yl)-6-(4-(3-hydroxypicolinoyl)piperazin-1-yl)-7-methyl-N-(2-methyl-4-(trifluoromethyl)phenyl)-5-oxo-5,7,8,9-tetrahydropyrrolo[1,2-c][1,2,4]triazolo[1,5-a]pyrimidine-9-carboxamide]	400	> 10000	100
Cc1ncnc(C(=O)N2CCN(c3c4n(c5nc(C6=CCOCC6)nn5c3=O)[C@@H](C(=O)Nc3ccc(C(F)(F)F)cc3Cl)C[C@@H]4C)C[C@H]2C)c1O [Example 18D, (7S,9R)—N-(2-chloro-4-(trifluoromethyl)phenyl)-2-(3,6-dihydro-2H-pyran-4-yl)-6-((R)-4-(5-hydroxy-6-methylpyrimidine-4-carbonyl)-3-methylpiperazin-1-yl)-7-methyl-5-oxo-5,7,8,9-tetrahydropyrrolo[1,2-c][1,2,4]triazolo[1,5-a]pyrimidine-9-carboxamide]	500	> 10000	100
Cc1cc(C(F)(F)F)ccc1NC(=O)[C@H]1CCc2c(N3CCN(C(=O)c4ncccc4O)CC3)c(=O)n3nc(C4=CCOCC4)nc3n21 [Example 20A, (R)-2-(3,6-dihydro-2H-pyran-4-yl)-6-(4-(3-hydroxypicolinoyl)piperazin-1-yl)-N-(2-methyl-4-(trifluoromethyl)phenyl)-5-oxo-5,7,8,9-tetrahydropyrrolo[1,2-c][1,2,4]triazolo[1,5-a]pyrimidine-9-carboxamide]	300	> 10000	90
O=C(Nc1ccc(C(F)(F)F)cc1)[C@@H]1CCc2c(N3CCN(C(=O)c4ncccc4O)CC3)c(=O)n3nc(C4=CCOCC4)nc3n21 [Example 23B, (S)-2-(3,6-dihydro-2H-pyran-4-yl)-6-(4-(3-hydroxypicolinoyl)piperazin-1-yl)-5-oxo-N-(4-(trifluoromethyl)phenyl)-5,7,8,9-tetrahydropyrrolo[1,2-c][1,2,4]triazolo[1,5-a]pyrimidine-9-carboxamide]	> 10000	> 10000	69000
C[C@@H]1C[C@H](C(=O)Nc2ccc(C(F)(F)F)cc2Cl)n2c1c(N1CCN(C(=O)c3nccc(Cl)c3O)CC1)c(=O)n1nc(N3CCOCC3)nc21 [Example 1A, (7R,9R)-6-(4-(4-chloro-3-hydroxypicolinoyl)piperazin-1-yl)-N-(2-chloro-4-(trifluoromethyl)phenyl)-7-methyl-2-morpholino-5-oxo-5,7,8,9-tetrahydropyrrolo[1,2-c][1,2,4]triazolo[1,5-a]pyrimidine-9-carboxamide]	40	> 10000	20

Results, then the compound that gave them:

GI50 (SW48 cells) [nM]	GI50 (DLD1-WRN-KO cells) [nM]	IC50 [1] [nM]	SMILES
3000	> 10000	2000	C[C@H]1C[C@@H](C(=O)Nc2ccc(C(F)(F)F)cc2Cl)n2c1c(N1CCN(C(=O)c3nccc(F)c3O)CC1)c(=O)n1nc(C3=CCOCC3)nc21 [Example 6B, (7S,9S)—N-(2-chloro-4-(trifluoromethyl)phenyl)-2-(3,6-dihydro-2H-pyran-4-yl)-6-(4-(4-fluoro-3-hydroxypicolinoyl)piperazin-1-yl)-7-methyl-5-oxo-5,7,8,9-tetrahydropyrrolo[1,2-c][1,2,4]triazolo[1,5-a]pyrimidine-9-carboxamide]
300	> 10000	30	C[C@@H]1C[C@H](C(=O)Nc2ccc(C(F)(F)F)cc2Cl)n2c1c(N1CCN(C(=O)c3ccnc(F)c3O)CC1)c(=O)n1nc(C3=CCOCC3)nc21 [Example 12, (7R,9R)—N-(2-chloro-4-(trifluoromethyl)phenyl)-2-(3,6-dihydro-2H-pyran-4-yl)-6-(4-(2-fluoro-3-hydroxyisonicotinoyl)piperazin-1-yl)-7-methyl-5-oxo-5,7,8,9-tetrahydropyrrolo[1,2-c][1,2,4]triazolo[1,5-a]pyrimidine-9-carboxamide]
10	> 10000	40	Cc1cc(C(F)(F)F)ccc1NC(=O)[C@H]1C[C@@H](C)c2c(N3CCN(C(=O)c4nccc(F)c4O)CC3)c(=O)n3nc(C4=CCOCC4)nc3n21 [Example 16, (7R,9R)-2-(3,6-dihydro-2H-pyran-4-yl)-6-(4-(4-fluoro-3-hydroxypicolinoyl)piperazin-1-yl)-7-methyl-N-(2-methyl-4-(trifluoromethyl)phenyl)-5-oxo-5,7,8,9-tetrahydropyrrolo[1,2-c][1,2,4]triazolo[1,5-a]pyrimidine-9-carboxamide]
5000	> 10000	6000	C[C@H]1C[C@@H](C(=O)Nc2ccc(C(F)(F)F)cc2Cl)n2c1c(N1CCN(C(=O)c3ncc4c(c3O)OCC4)CC1)c(=O)n1nc(C3=CCOCC3)nc21 [Example 5B, (7S,9S)—N-(2-chloro-4-(trifluoromethyl)phenyl)-2-(3,6-dihydro-2H-pyran-4-yl)-6-(4-(7-hydroxy-2,3-dihydrofuro[3,2-c]pyridine-6-carbonyl)piperazin-1-yl)-7-methyl-5-oxo-5,7,8,9-tetrahydropyrrolo[1,2-c][1,2,4]triazolo[1,5-a]pyrimidine-9-carboxamide]
